From paper PMC3690672 (European journal of nuclear medicine and molecular imaging, 2009)
Several values for one entry are separate records, joined by “and”; a condition that tells them apart may be missing. Equal values may be shown once. Read-outs that look alike come from different tables or passages of the source.

Tests used:
[1] = tested on: P-gp at the blood-brain barrier; conditions: humans, 2 mg/kg, plasma 490±203 ng/ml; cited from earlier work
[2] = target: T1, P-glycoprotein (P-gp) at the blood-brain barrier (Rattus norvegicus, UniProt Q6PSM0); assay: in vivo
[3] = tested on: P-glycoprotein (P-gp) at the blood-brain barrier; type: in vivo, rat
[4] = Tariquidar or elacridar concentrations in plasma and brain by LC/MS; type: in vivo; conditions: rat; for concentration at 210 min / concentration at 180 min: intravenous
[5] = tested on: P-gp at the blood-brain barrier; conditions: 15 mg/kg, rats; cited from earlier work
[6] = humans, 2 mg/kg; cited from earlier work
[7] = target: T1, P-glycoprotein (P-gp) at the blood-brain barrier; conditions: for Mean DV increase (of baseline DV): 3 mg/kg tariquidar; for DV (Logan) of VPM / DV of VPM (2T4K model) / K1 of VPM (2T4K model) / k2 of VPM (2T4K model) / k3 of VPM (2T4K model) / k4 of VPM (2T4K model): after 3 mg/kg tariquidar (scan 2, 120 min after), mean±SD, n=6
[8] = tested on: multidrug resistance-associated proteins (MRPs), such as MRP1; conditions: cited from earlier work
[9] = target: T1, P-glycoprotein (P-gp) at the blood-brain barrier; conditions: for DV (Logan) of VPM / DV of VPM (2T4K model) / K1 of VPM (2T4K model) / k2 of VPM (2T4K model) / k3 of VPM (2T4K model) / k4 of VPM (2T4K model): whole brain, PET 120 min after, mean±SD
[10] = Hill fit of whole-brain DV vs inhibitor dose

T1 sequence (Q6PSM0 1-1272): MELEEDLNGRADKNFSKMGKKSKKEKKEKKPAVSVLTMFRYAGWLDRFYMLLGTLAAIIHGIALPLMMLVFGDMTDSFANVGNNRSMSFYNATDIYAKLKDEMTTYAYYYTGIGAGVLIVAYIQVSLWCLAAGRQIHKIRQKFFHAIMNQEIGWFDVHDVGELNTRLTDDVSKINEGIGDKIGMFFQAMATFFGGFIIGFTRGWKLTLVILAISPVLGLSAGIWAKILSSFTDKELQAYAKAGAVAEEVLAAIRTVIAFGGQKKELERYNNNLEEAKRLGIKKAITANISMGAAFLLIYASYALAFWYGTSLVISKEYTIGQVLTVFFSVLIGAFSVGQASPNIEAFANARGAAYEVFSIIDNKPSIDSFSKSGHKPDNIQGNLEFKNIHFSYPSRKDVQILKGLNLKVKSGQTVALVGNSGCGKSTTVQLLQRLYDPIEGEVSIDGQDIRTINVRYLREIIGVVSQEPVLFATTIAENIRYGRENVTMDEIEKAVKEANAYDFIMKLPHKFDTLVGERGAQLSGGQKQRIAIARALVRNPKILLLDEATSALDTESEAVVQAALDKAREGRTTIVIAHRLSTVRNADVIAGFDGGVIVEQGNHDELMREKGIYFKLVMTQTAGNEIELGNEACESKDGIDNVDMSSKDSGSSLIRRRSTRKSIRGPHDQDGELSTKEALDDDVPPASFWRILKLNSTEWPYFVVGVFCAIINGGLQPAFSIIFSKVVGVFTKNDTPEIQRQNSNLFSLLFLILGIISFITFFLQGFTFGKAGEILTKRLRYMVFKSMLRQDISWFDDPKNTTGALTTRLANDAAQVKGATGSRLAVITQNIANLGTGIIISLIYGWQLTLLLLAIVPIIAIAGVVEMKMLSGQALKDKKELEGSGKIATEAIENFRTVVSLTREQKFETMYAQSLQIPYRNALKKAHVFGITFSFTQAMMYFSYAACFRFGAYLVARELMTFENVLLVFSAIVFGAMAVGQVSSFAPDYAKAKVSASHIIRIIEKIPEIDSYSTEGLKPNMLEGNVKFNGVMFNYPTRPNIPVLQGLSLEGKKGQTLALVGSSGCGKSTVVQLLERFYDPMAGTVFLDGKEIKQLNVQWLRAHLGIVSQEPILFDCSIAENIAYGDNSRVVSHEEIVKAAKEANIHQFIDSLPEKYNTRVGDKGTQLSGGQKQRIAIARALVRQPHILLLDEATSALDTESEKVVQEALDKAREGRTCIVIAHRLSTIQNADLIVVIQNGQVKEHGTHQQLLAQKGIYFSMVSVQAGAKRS

Structure (SMILES): COc1cc2c(cc1OC)CN(CCc1ccc(NC(=O)c3cc(OC)c(OC)cc3NC(=O)c3cnc4ccccc4c3)cc1)CC2 [tariquidar, Tariquidar dimesylate]
- Increase of brain DVs of VPM [1]: 1.24 fold
- EC50 at 180 min [2]: 0.545 ± 0.0299 µg/mL
- ED50 at 120 min ([2]; Sprague-Dawley, iv): 3 ± 0.2 mg/kg
- Reversibility of the effect on brain TACs ([3]; 15 mg/kg, decline of TACs after peak uptake): at least partially reversible
- Time of peak VPM brain uptake (maximum effect) after inhibitor injection ([3]; tariquidar 15 mg/kg or elacridar 5 mg/kg at 60 min after radiotracer injection): 30 ± 5 min and 30 min
- concentration at 210 min ([4]; brain, 3 mg/kg): 457 ± 37 ng/mL
- concentration at 180 min ([4]; brain, 15 mg/kg): 6450 ± 3600 ng/mL
- Kp at […] ([4]; brain, iv, 3 mg/kg): 1 ± 0.3
- Kp at 3 h ([4]; brain, iv, 15 mg/kg): 1.7 ± 0.9
- concentration at 210 min ([4]; plasma, 3 mg/kg): 503 ± 139 ng/mL
- concentration at 180 min ([4]; plasma, 15 mg/kg): 4000 ± 390 ng/mL
- DV increase of VPM following tariquidar [5]: approximately 12 fold
- Plasma concentration at the time of the PET scan [6]: 490 ± 203 ng/mL
- Mean DV increase (of baseline DV) ([7]; cerebellum): 2.8±0.7
- DV (Logan) of VPM ([7]; cerebellum): 6.07±0.52 (0.9) ml·ml^−1
- DV of VPM (2T4K model) ([7]; cerebellum): 6.14 ml·ml^−1 and 6.14±0.54 (2.9) ml·ml^−1
- K1 of VPM (2T4K model) ([7]; cerebellum): 0.73±0.14 (11.7) ml·ml^−1·min^−1
- k2 of VPM (2T4K model) ([7]; cerebellum): 0.32±0.13 (46.6) min^−1
- k3 of VPM (2T4K model) ([7]; cerebellum): 0.30±0.08 (75.2) min^−1
- k4 of VPM (2T4K model) ([7]; cerebellum): 0.20±0.05 (26.4) min^−1
- Mean DV increase (of baseline DV) ([7]; corpus striatum): 5.9±1.1
- DV (Logan) of VPM ([7]; corpus striatum): 8.70±1.05 (0.6) ml·ml^−1
- DV of VPM (2T4K model) ([7]; corpus striatum): 8.89±1.08 (2.7) ml·ml^−1
- K1 of VPM (2T4K model) ([7]; corpus striatum): 0.79±0.13 (10.5) ml·ml^−1·min^−1
- k2 of VPM (2T4K model) ([7]; corpus striatum): 0.28±0.08 (46.6) min^−1
- k3 of VPM (2T4K model) ([7]; corpus striatum): 0.47±0.22 (53.4) min^−1
- k4 of VPM (2T4K model) ([7]; corpus striatum): 0.22±0.06 (23.1) min^−1
- Mean DV increase (of baseline DV) ([7]; entorhinal cortex): 3.0±1.4
- DV (Logan) of VPM ([7]; entorhinal cortex): 6.09±1.37 (1.1) ml·ml^−1
- DV of VPM (2T4K model) ([7]; entorhinal cortex): 6.20±1.40 (3.4) ml·ml^−1
- K1 of VPM (2T4K model) ([7]; entorhinal cortex): 0.64±0.17 (12.9) ml·ml^−1·min^−1
- k2 of VPM (2T4K model) ([7]; entorhinal cortex): 0.37±0.14 (57.5) min^−1
- k3 of VPM (2T4K model) ([7]; entorhinal cortex): 0.34±0.10 (68.9) min^−1
- k4 of VPM (2T4K model) ([7]; entorhinal cortex): 0.15±0.05 (22.5) min^−1
- Mean DV increase (of baseline DV) ([7]; frontal motor cortex): 3.1±1.1
- DV (Logan) of VPM ([7]; frontal motor cortex): 7.14±0.80 (0.9) ml·ml^−1
- DV of VPM (2T4K model) ([7]; frontal motor cortex): 7.33±0.82 (1.7) ml·ml^−1
- K1 of VPM (2T4K model) ([7]; frontal motor cortex): 0.63±0.08 (9.5) ml·ml^−1·min^−1
- k2 of VPM (2T4K model) ([7]; frontal motor cortex): 0.24±0.05 (49.6) min^−1
- k3 of VPM (2T4K model) ([7]; frontal motor cortex): 0.32±0.09 (68.7) min^−1
- k4 of VPM (2T4K model) ([7]; frontal motor cortex): 0.19±0.06 (23.8) min^−1
- Mean DV increase (of baseline DV) ([7]; hippocampus): 6.4±0.9
- DV (Logan) of VPM ([7]; hippocampus): 8.01±0.88 (0.9) ml·ml^−1
- DV of VPM (2T4K model) ([7]; hippocampus): 8.17±0.91 (2.2) ml·ml^−1
- K1 of VPM (2T4K model) ([7]; hippocampus): 0.75±0.11 (11.1) ml·ml^−1·min^−1
- k2 of VPM (2T4K model) ([7]; hippocampus): 0.32±0.08 (57.9) min^−1
- k3 of VPM (2T4K model) ([7]; hippocampus): 0.43±0.09 (69.4) min^−1
- k4 of VPM (2T4K model) ([7]; hippocampus): 0.18±0.05 (23.8) min^−1
- Mean DV increase (of baseline DV) ([7]; thalamus): 7.1±1.1
- DV (Logan) of VPM ([7]; thalamus): 9.45±1.03 (0.6) ml·ml^−1
- DV of VPM (2T4K model) ([7]; thalamus): 9.64 ml·ml^−1 and 9.64±1.06 (2.0) ml·ml^−1
- K1 of VPM (2T4K model) ([7]; thalamus): 0.93±0.12 (9.0) ml·ml^−1·min^−1
- k2 of VPM (2T4K model) ([7]; thalamus): 0.33±0.18 (48.8) min^−1
- k3 of VPM (2T4K model) ([7]; thalamus): 0.47±0.11 (64.4) min^−1
- k4 of VPM (2T4K model) ([7]; thalamus): 0.23±0.06 (23.6) min^−1
- Inhibition of MRPs, such as MRP1 [8]: do not inhibit
- DVmax (maximum effect) [9, 10]: 11.9±0.5 ml·ml^−1
- Hill factor n [9, 10]: 3.0±0.6
- Dose leading to complete inhibition of P-gp ([9]; according to dose-response assessment (Fig. 2)): above 6 mg/kg
- Maximum increase in VPM brain distribution (DV) over baseline ([9]; at maximum effective doses, rat brain): up to 11 fold
- Whole-brain DV increase (factor) as compared to baseline scans ([9]; inhibitor 3.75 mg/kg): 7.0±1.1
- Whole-brain DV increase (factor) as compared to baseline scans ([9]; inhibitor 7.5 mg/kg): 10.1±0.8
- Whole-brain DV increase (factor) as compared to baseline scans ([9]; inhibitor 15 mg/kg): 9.9±1.8
- Whole-brain DV increase (factor) as compared to baseline scans ([9]; inhibitor 30 mg/kg): 10.2±0.3
- Increase of brain DVs at the half-maximum effect plasma concentration ([9]; rat, in vivo): approximately 4 fold
- DV (Logan) of VPM ([9]; inhibitor 3.75 mg/kg i.v.): 8.80±1.06 (0.9) ml·ml^−1
- DV of VPM (2T4K model) ([9]; inhibitor 3.75 mg/kg i.v.): 8.92±1.11 (2.3) ml·ml^−1
- K1 of VPM (2T4K model) ([9]; inhibitor 3.75 mg/kg i.v.): 0.81±0.16 (13.9) ml·ml^−1·min^−1
- k2 of VPM (2T4K model) ([9]; inhibitor 3.75 mg/kg i.v.): 0.18±0.05 (50.3) min^−1
- k3 of VPM (2T4K model) ([9]; inhibitor 3.75 mg/kg i.v.): 0.20±0.02 (101.3) min^−1
- k4 of VPM (2T4K model) ([9]; inhibitor 3.75 mg/kg i.v.): 0.22±0.07 (51.4) min^−1
- DV (Logan) of VPM ([9]; inhibitor 7.5 mg/kg i.v.): 12.66±0.77 (0.9) ml·ml^−1
- DV of VPM (2T4K model) ([9]; inhibitor 7.5 mg/kg i.v.): 12.93±0.79 (1.7) ml·ml^−1
- K1 of VPM (2T4K model) ([9]; inhibitor 7.5 mg/kg i.v.): 1.27±0.24 (17.4) ml·ml^−1·min^−1
- k2 of VPM (2T4K model) ([9]; inhibitor 7.5 mg/kg i.v.): 0.31±0.12 (82.5) min^−1
- k3 of VPM (2T4K model) ([9]; inhibitor 7.5 mg/kg i.v.): 0.37±0.10 (97.3) min^−1
- k4 of VPM (2T4K model) ([9]; inhibitor 7.5 mg/kg i.v.): 0.18±0.01 (23.9) min^−1
- DV (Logan) of VPM ([9]; inhibitor 15 mg/kg i.v.): 12.35±1.79 (1.4) ml·ml^−1
- DV of VPM (2T4K model) ([9]; inhibitor 15 mg/kg i.v.): 12.72±1.83 (1.8) ml·ml^−1
- K1 of VPM (2T4K model) ([9]; inhibitor 15 mg/kg i.v.): 1.02±0.02 (15.0) ml·ml^−1·min^−1
- k2 of VPM (2T4K model) ([9]; inhibitor 15 mg/kg i.v.): 0.43±0.16 (50.3) min^−1
- k3 of VPM (2T4K model) ([9]; inhibitor 15 mg/kg i.v.): 0.48±0.04 (39.2) min^−1
- k4 of VPM (2T4K model) ([9]; inhibitor 15 mg/kg i.v.): 0.12±0.02 (20.4) min^−1
- DV (Logan) of VPM ([9]; inhibitor 30 mg/kg i.v.): 12.76±0.04 (0.7) ml·ml^−1
- DV of VPM (2T4K model) ([9]; inhibitor 30 mg/kg i.v.): 13.11±0.22 (2.1) ml·ml^−1
- K1 of VPM (2T4K model) ([9]; inhibitor 30 mg/kg i.v.): 1.22±0.23 (11.2) ml·ml^−1·min^−1
- k2 of VPM (2T4K model) ([9]; inhibitor 30 mg/kg i.v.): 0.30±0.04 (54.6) min^−1
- k3 of VPM (2T4K model) ([9]; inhibitor 30 mg/kg i.v.): 0.38±0.18 (59.4) min^−1
- k4 of VPM (2T4K model) ([9]; inhibitor 30 mg/kg i.v.): 0.17±0.09 (19.8) min^−1
